Activity calls are given as the source filed them.
Columns and labels:
[1] = biological target: Matrix metalloproteinase-14 (Homo sapiens, UniProt P50281); experiment: Dose Response confirmation of uHTS hits for a small molecule inhibitors of MT1-MMP activation in a fluorescence assay set 1.; assay type: functional
[2] = CRF-BP/CRF-R2 complex antagonists, dose response, cell-based, uHTS hits, 384-well (AID 651639); assay type: functional, Homo sapiens; conditions: read-out: IC50_Mean
[3] = biological target: T1, Corticotropin-releasing factor receptor 2/Corticotropin-releasing factor-binding protein (Homo sapiens, UniProt P24387+Q13324); experiment: Dose Response confirmation of uHTS hits for small molecule antagonists of the CRF-binding protein and CRF-R2 receptor complex.; assay type: functional; conditions: read-out: IC50_Mean
T1 sequence (Q13324 whole entry): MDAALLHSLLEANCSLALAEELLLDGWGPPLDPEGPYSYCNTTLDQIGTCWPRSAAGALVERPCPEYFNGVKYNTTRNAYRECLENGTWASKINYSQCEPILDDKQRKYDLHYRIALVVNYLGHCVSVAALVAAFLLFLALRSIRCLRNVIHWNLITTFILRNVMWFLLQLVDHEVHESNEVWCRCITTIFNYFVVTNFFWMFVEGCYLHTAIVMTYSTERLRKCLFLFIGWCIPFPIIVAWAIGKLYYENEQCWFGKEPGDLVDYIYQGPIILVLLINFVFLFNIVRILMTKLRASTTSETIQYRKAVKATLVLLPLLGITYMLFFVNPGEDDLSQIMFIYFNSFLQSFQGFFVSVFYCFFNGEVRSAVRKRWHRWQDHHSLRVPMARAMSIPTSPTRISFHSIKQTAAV
T1 sequence (P24387 whole entry): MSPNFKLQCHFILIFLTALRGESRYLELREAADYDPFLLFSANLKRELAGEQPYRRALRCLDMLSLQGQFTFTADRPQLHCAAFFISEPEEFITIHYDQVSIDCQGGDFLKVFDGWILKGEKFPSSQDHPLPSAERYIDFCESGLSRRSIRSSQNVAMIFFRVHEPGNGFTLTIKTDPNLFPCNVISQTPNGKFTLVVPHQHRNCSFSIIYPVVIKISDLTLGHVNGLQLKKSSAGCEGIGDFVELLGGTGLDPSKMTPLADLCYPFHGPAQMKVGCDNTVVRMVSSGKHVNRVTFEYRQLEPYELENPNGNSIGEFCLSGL

[4] = biological target: T1, Corticotropin-releasing factor receptor 2/Corticotropin-releasing factor-binding protein; experiment: activators of CRF receptor 2 with binding protein – uHTS hits, confirmation (AID 602473); assay type: functional; conditions: read-out: EC50_Mean
Aminopeptidase N = biological target: T2, Aminopeptidase N (Plasmodium falciparum FcB1/Columbia, UniProt O96935); experiment: P. falciparum M1AAP inhibitors, biochemical, fluorogenic H-Leu-NHMec substrate, 1536-well (AID 1445); set-up: species or system Plasmodium falciparum 3D7, 3D7
T2 sequence (O96935 whole entry): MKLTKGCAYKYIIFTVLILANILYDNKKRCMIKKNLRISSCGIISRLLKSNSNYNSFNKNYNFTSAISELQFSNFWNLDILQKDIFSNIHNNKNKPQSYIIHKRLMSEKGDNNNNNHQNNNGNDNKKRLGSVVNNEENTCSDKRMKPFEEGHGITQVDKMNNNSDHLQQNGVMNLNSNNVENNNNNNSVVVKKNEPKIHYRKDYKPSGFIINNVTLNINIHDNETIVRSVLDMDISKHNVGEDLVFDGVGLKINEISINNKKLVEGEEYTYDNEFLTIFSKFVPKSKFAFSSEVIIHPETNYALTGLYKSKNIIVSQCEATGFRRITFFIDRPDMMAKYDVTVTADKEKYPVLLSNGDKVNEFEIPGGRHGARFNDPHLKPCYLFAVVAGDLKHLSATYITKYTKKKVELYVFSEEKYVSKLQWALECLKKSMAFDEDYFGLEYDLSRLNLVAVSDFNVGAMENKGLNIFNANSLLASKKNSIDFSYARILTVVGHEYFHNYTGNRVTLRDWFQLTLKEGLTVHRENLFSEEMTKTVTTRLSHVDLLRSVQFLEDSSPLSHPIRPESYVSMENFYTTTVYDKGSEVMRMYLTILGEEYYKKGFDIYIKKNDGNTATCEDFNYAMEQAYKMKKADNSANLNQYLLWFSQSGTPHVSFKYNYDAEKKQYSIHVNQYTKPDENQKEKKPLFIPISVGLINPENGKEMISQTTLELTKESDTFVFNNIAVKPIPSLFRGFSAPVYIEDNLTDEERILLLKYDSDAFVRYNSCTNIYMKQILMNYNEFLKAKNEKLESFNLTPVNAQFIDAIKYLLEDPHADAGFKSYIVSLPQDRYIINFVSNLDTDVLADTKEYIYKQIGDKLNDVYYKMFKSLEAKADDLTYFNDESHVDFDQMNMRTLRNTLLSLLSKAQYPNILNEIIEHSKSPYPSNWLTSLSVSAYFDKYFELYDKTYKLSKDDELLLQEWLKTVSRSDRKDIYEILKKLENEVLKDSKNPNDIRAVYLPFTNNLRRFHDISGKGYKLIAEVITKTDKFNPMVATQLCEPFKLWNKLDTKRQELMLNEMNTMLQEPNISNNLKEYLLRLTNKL

[5] = insulin promoter down-regulators in MIN6 cells, imaging, high-content screening, mouse beta cells (AID 1628); assay type: functional
INS1 = experiment: beta cell apoptosis inhibitors, cytokine rescue, dose response, luminescence, retest (AID 449756); assay type: functional, cell-based; conditions: Rattus norvegicus;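 further: cell death triggered by IL-1 beta plus TNF-alpha plus IFN-gamma mixture; protective hits raise ATP signal compared with cytokine alone wells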
[6] = cytotoxicity in HEK-293T cells, dose response, cytotoxicity control for TCR NF-kB inhibitor project, luminescence, T-cell screen hits (AID 489026); assay type: functional, cell-based;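 further: cells exposed to compound about 14 hours before the viability readout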
[7] = control 3'UTR Renilla luciferase suppression, dose response, counter-screen for Shn3 inhibitor project, cell-based, Clone20-Shn3RL, cherry-picked (AID 624133); assay type: functional
cells = assay type: functional, cell-based; conditions: HEK-CNG
[8] = Shn3 3'UTR reporter inhibitors, dose response, cell-based, Clone20 osteoblasts, firefly luciferase, cherry-picked (AID 624132); assay type: functional;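 further: firefly luciferase luminescence from reporter carrying the Shn3 3'UTR in osteoblasts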
Galanin receptor type 3 = Galanin receptor type 3 (Homo sapiens, UniProt O60755); experiment: Fluorescence-based cell-based primary high throughput dose response assay to identify antagonists of the Galanin Receptor 3 (GalR3).; assay type: functional
[9] = cytotoxicity in MIN6 insulinoma cells, dose response, cytotoxicity control, cell-based, mouse insulinoma (AID 2122); assay type: functional;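 further: confirmatory high-throughput counterscreen run to flag cytotoxic compounds; mouse MIN-6 beta cells carrying an insulin promoter eGFP reporter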
[10] = HepG2 cell cytotoxicity, dose response, cytotoxicity control for Shn3 inhibitor project, CellTiter-Glo, cherry-picked (AID 624134); assay type: functional, cell-based
[11] = biological target: T3, DNA repair protein RAD52 homolog (Homo sapiens, UniProt P43351); assay type: functional, biochemical
T3 sequence (P43351 whole entry): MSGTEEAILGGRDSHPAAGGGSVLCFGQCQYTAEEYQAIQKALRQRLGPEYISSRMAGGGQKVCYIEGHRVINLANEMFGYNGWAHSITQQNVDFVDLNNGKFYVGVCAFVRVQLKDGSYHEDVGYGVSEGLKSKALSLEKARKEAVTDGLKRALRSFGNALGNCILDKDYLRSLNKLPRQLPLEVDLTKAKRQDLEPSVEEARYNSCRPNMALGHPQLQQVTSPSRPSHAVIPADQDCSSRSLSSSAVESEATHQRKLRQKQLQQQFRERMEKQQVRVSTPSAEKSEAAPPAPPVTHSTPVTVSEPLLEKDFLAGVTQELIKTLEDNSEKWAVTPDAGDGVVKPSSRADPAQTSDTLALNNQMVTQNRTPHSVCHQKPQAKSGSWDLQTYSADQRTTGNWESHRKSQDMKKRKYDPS

[12] = HEK293T cytotoxicity, dose response, cytotoxicity control for miR-122 modulator project, cell-based, inhibitor set, cherry-pick, set 2 (AID 720697); assay type: functional
[13] = HEK293T cytotoxicity, dose response, cytotoxicity control for miR-122 modulator project, cell-based, activator set, cherry-pick (AID 720690); assay type: functional;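 further: HEK293T human cells scored for general mammalian cytotoxicity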
Paired box protein Pax-8 = Paired box protein Pax-8 (Homo sapiens, UniProt Q06710); experiment: inhibitors of PAX8-driven TPO luciferase reporter, dose response, RMG-I cells, cherry-pick (AID 687027); assay type: functional, cell-based;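 further: luciferase reporter driven by Pax8 target thyroperoxidase promoter measured by SteadyGlo luminescence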
[14] = cytotoxicity dependent on PAX8, dose response, cell-based, plate reader, dry powder (AID 743049); assay type: functional
[15] = cytotoxicity in OV-90 ovarian cancer cells, dose response, PAX8 inhibitor project, cell-based, plate reader, dry powder, SA8 (AID 743149); assay type: functional
[16] = PAX5 activity inhibitors, dose response, selectivity assay for PAX8 inhibitor project, cell-based, plate reader, dry powder samples (AID 743047); assay type: functional;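 further: HEK293 cells carrying a Pax5 driven CD19 promoter luciferase reporter; potency of inhibitors that lower reporter luminescence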
[17] = NIH:OVCAR-3 ovarian cancer cell cytotoxicity, dose response, PAX8 inhibitor project, plate reader, dry powder samples (AID 743044); assay type: functional, cell-based
[18] = cytotoxicity in COV434 cells, dose response, cytotoxicity control for PAX8 inhibitor project, cell-based, plate reader, dry powder, SA7 (AID 743145); assay type: functional

Sequence of Galanin receptor type 3 (O60755 whole entry): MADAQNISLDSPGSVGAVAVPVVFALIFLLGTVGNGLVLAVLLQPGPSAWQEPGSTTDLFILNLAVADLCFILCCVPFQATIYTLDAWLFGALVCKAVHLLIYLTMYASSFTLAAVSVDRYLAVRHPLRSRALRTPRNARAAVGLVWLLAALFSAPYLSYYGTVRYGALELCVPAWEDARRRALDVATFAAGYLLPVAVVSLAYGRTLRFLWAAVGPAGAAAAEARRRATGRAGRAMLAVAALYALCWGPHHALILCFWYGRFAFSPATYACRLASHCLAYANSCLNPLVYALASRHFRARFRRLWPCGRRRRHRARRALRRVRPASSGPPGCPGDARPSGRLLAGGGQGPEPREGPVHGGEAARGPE
Sequence of Paired box protein Pax-8 (Q06710 whole entry): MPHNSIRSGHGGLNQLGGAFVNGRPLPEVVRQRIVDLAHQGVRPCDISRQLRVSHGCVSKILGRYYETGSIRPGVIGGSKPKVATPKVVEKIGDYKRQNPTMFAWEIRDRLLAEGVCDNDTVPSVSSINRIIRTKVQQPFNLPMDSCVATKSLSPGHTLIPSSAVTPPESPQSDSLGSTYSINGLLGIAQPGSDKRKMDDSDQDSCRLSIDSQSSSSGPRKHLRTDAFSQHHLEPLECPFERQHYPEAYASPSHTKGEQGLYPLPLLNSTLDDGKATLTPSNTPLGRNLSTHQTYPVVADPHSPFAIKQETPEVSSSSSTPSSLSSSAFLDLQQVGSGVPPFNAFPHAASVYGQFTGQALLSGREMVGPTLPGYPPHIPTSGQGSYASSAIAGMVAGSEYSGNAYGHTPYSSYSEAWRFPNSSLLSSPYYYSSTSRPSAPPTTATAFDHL

## CNc1ccc(N=Nc2cc[n+]([O-])cc2C)cc1C
[1]
  IC50: > 80 µM (inactive)

## Cc1ccc(S(=O)(=O)NC2=NC(=O)/C(=C/c3ccccc3)S2)cc1
[2]
  IC50: > 20 µM (inactive)
[3]
  IC50: 18.4 µM (active)
[4]
  EC50: > 53 µM (inactive)
Aminopeptidase N
  IC50: 69.2 µM (active)

## Cc1cc(C)nc(SCC(=O)Nc2ccnc3ccccc23)n1
[5]
  IC50: 0.695 µM (active)
INS1
  AC50: 4.76 µM (active)
[6]
  IC50: > 80 µM (inactive)
[7]
  AC50: < 0.26 µM (active)
cells
  EC50: > 29.9 µM (inactive)
[8]
  AC50: 0.462 µM (active)
Galanin receptor type 3
  IC50: 0.874 µM (active)
[9]
  IC50: 0.398 µM (active)
[10]
  AC50: > 70 µM (inactive)

## COc1ccc(-c2c(-c3ccccc3)c(C(=O)C(=O)NCCCN(C)C)n3ccc4cc(OC)c(OC)cc4c23)cc1OC
[11]
  AC50: 3.15 µM (active)
[12]
  AC50: 4.39 µM (active)
[13]
  AC50: 17.2 µM (active)

## CC(C)c1cc(C(=O)OCC(=O)N2CCN(C(=O)c3ccco3)CC2)c(O)c(C(C)C)c1
Paired box protein Pax-8
  AC50: 1.58 µM (active)
[14]
  AC50: 10.8 µM (active)
[15]
  AC50: 81.3 µM (active)
[16]
  AC50: 45.8 µM (active)
[17]
  AC50: 49.9 µM (active)
[18]
  AC50: 13.7 µM (active)
